# Reference: patent publication US20150231236A1, “METHODS FOR TREATING PATIENTS WITH HYPERCHOLESTEROLEMIA THAT IS NOT ADEQUATELY CONTROLLED BY MODERATE-DOSE STATIN THERAPY” (Regeneron Pharmaceuticals, Inc., priority 2014, published 2015)
# Experiments:
# [1] = tested on: patients with hypercholesterolemia at high CV risk not adequately controlled with rosuvastatin (10 mg or 20 mg); assay: Example 3: safety, treatment-emergent adverse events in pooled treatment groups; settings: Safety Population; pooled treatment groups
# [2] = tested on: patients with hypercholesterolemia at high CV risk not adequately controlled with atorvastatin (20 mg or 40 mg); assay: Example 2: randomized, double-blind trial, lipid efficacy of mAb316P add-on to atorvastatin vs EZE add-on, atorvastatin dose doubling or switch to rosuvastatin; type: in vivo, human; settings: for reduced LDL-C levels by: week 24, add-on mAb316P
# Procedure: The present study was a randomized, double-blind, active-comparator, parallel-group study in patients at high CV risk with non-FH or heFH who are not adequately controlled with atorvastatin (20 mg or 40 mg) with or without other lipid-modifying therapy (LMT) (excluding EZE). The study design is illustrated in FIG. 1. Patients who entered the study were taking either atorvastatin 20 mg or atorvastatin 40 mg. The former patients were randomized to 1 of 3 treatment arms (arms 1 to 3); the latter patients were randomized to 1 of 4 treatment arms (arms 4 to 7). The treatment arms are as follows:
# (1) mAb316P+atorvastatin 20 mg+placebo-EZE; (2) Placebo-mAb316P+atorvastatin 40 mg+placebo-EZE; and (3) Placebo-mAb316P+atorvastatin 20 mg+EZE 10 mg.
# (4) mAb316P+atorvastatin 40 mg+placebo-EZE; (5) Placebo-mAb316P+atorvastatin 80 mg+placebo-EZE; (6). Placebo-mAb316P+rosuvastatin 40 mg+placebo-EZE; and (7) Placebo-mAb316P+atorvastatin 40 mg+EZE 10 mg.
# (B) a double-blind treatment period of 24 weeks. Each patient received a SC injection Q2W (mAb316P or placebo-mAb316P) and was administered (or instructed to take) 2 oral blinded medications daily (a statin [atorvastatin or rosuvastatin] and EZE or placebo-EZE). The first injection of mAb316P or placebo-mAb316P was administered at the clinical site on day 1, after study assessments were completed, and as soon as possible after the patient was randomized into the study. The patient/caregiver administered subsequent injections outside of the clinic according to the dosing schedule. On days where the clinic study visit coincided with dosing, the dose of study drugs (injectable and oral) were administered after all study assessments had been performed and all laboratory samples collected. The last dose of mAb316P or placebo-mAb316P was administered at week 22. The last dose of daily oral study drugs was administered at week 24. At week 12, based on their baseline CV risk, certain patients randomized to mAb316P in a blinded manner, had their dose increased as follows:
# Each patient received a subcutaneous (SC) injection once every two weeks (Q2W) (mAb316P or placebo-mAb316P) and took 2 oral blinded medications daily (a statin [atorvastatin or rosuvastatin] and EZE or placebo-EZE).
# The injectable study treatment was a single SC injection of 1 mL for a 75 mg or 150 mg dose of mAb316P or placebo-mAb316P provided in an auto-injector, administered in the abdomen, thigh, or outer area of the upper arm. The first injection of study drug was administered at the clinical site, as soon as possible after the patient was randomized into the study. The patient was monitored at the clinical site for at least 30 minutes following the first injection. The patient/caregiver administered subsequent injections outside of the clinic, according to the dosing schedule. On days where the clinic study visit coincided with dosing, the dose of study drug was administered after all study assessments have been performed and all laboratory samples collected.
# The dose of mAb316P was increased, in a blinded manner, from 75 mg to 150 mg SC Q2W, starting at week 12, based on baseline CV risk in the following circumstances:
# (§1) The primary efficacy endpoint was the percent change in calculated LDL-C from baseline to week 24, which is defined as: 100× (calculated LDL-C value at week 24−calculated LDL-C value at baseline)/calculated LDL-C value at baseline. The baseline calculated LDL-C value was the last LDL-C level obtained before the first double-blind study drug injection. The calculated LDL-C at week 24 will be the LDL-C level obtained within the week 24 analysis window and during the main efficacy period. The main efficacy period was defined as the time from the first double-blind study drug injection up to 21 days after the last double-blind study drug injection or up to the upper limit of the week 24 analysis window, whichever comes first.
# Total-C, HDL-C, TG, ApoB, ApoA-1, and Lp (a) were directly measured by a central laboratory. […]
# [3] = tested on: patients with hypercholesterolemia at high CV risk not adequately controlled with atorvastatin (20 mg or 40 mg); assay: Example 2: safety, treatment-emergent adverse events in pooled treatment groups; settings: Safety Population, pooled treatment groups
# Procedure: For the pooled data, three treatment groups are formed by combining treatment arms regardless of the atorvastatin doses as follows:
# (2) EZE treatment group: pooling EZE+atorva 20 mg arm and EZE+atorva 40 mg arm;
# [4] = tested on: patients with hypercholesterolemia at high CV risk not adequately controlled with rosuvastatin (10 mg or 20 mg); assay: Example 3: randomized, double-blind trial, lipid efficacy of mAb316P add-on to rosuvastatin vs EZE add-on or rosuvastatin dose doubling; type: in vivo, human; settings: for Proportion of Patients Reaching LDL-C goal (%) / LDL-C W24 % change from baseline, LS mean (SE): week 24; for Proportion of Patients Reaching LDL-C goal (%): LDL-C <70 mg/dL very high risk or <100 mg/dL high risk; for LDL-C W24 % change from baseline, LS mean (SE): ITT population, treatment arm as labelled
# Procedure: The present study was a randomized, double-blind, active-comparator, parallel-group study in patients at high CV risk with non-FH or heFH who are not adequately controlled with rosuvastatin (10 mg or 20 mg) with or without other lipid-modifying therapy (LMT) (excluding EZE). The study design is illustrated in FIG. 2. Patients who entered the study were taking either rosuvastatin 10 mg or rosuvastatin 20 mg. The former patients were randomized to 1 of 3 treatment arms (arms 1 to 3); the latter patients were randomized to 1 of 3 treatment arms (arms 4 to 6). The treatment arms are as follows:
# (B) a double-blind treatment period of 24 weeks. […] The patient/caregiver administered subsequent injections outside of the clinic according to the dosing schedule. […] The last dose of daily oral study drugs was administered at week 24.
# The first injection of study drug was administered at the clinical site, as soon as possible after the patient was randomized into the study. The patient was monitored at the clinical site for at least 30 minutes following the first injection. The patient/caregiver administered subsequent injections outside of the clinic, according to the dosing schedule.
# as §1, with “24 was” for “24 will be”, “period is” for “period was”
# Total-C, HDL-C, TG, ApoB, ApoA-1, and Lp(a) were directly measured by a central laboratory. LDL-C was calculated using the Friedewald formula. […] Non-HDL-C was calculated by subtracting HDL-C from the total-C. Ratio ApoB/ApoA-1 was calculated.
# For clarification, the ITT analysis is defined for patients in the ITT population and includes all endpoint assessments in an analysis window, regardless of study treatment dosing status (i.e. includes post-treatment assessments). The on-treatment analysis is defined for patients in the mITT population and includes all endpoint assessments from the first double-blind study drug (capsule or injection, whichever comes first) up to 21 days after the last double-blind study drug injection or 3 days after the last capsule intake, whichever comes first (i.e. includes assessments in the efficacy treatment period).
# [5] = Week 4, baseline rosuvastatin 10 mg
# [6] = Week 8, baseline rosuvastatin 10 mg
# [7] = Week 12, baseline rosuvastatin 10 mg
# [8] = Week 16, baseline rosuvastatin 10 mg
# [9] = Week 24, baseline rosuvastatin 10 mg
# [10] = Week 4, baseline rosuvastatin 20 mg
# [11] = Week 8, baseline rosuvastatin 20 mg
# [12] = Week 12, baseline rosuvastatin 20 mg
# [13] = Week 16, baseline rosuvastatin 20 mg
# [14] = Week 24, baseline rosuvastatin 20 mg
compound,measurement,setting,value
"O=C1[C@H](CC[C@H](O)c2ccc(F)cc2)[C@@H](c2ccc(O)cc2)N1c1ccc(F)cc1 [EZE, ezetimibe, reference compound]",General Allergic TEAEs,[1],2 (2.0%) patients (%)
same,SOC General disorders and administration site conditions,[1],8 (7.9%) patients (%)
same,SOC Psychiatric disorders,[1],4 (4.0%) patients (%)
same,"SOC Respiratory, thoracic and mediastinal disorders",[1],2 (2.0%) patients (%)
same,SOC Skin and subcutaneous tissue disorders,[1],5 (5.0%) patients (%)
same,TEAEs,[1],54 (53.5%) patients (%)
same,Treatment-emergent SAEs,[1],8 (7.9%) patients (%)
same,Treatment-emergent cardiovascular events adjudicated positively,[1],1 (1.0%) patients (%)
same,Treatment-emergent neurocognitive disorders,[1],1 (1.0%) patients (%)
same,Treatment-emergent neurologic disorders,[1],3 (3.0%) patients (%)
same,cough,[1],0 patients (%)
same,discontinued study treatment early due to a treatment emergent adverse event,[1],8 (7.9%) patients (%)
same,injection site reactions (ISRs),[1],0 patients (%)
same,LDL-C reductions observed,"[2]; across atorvastatin 20 mg and 40 mg regimens, ezetimibe add-on groups, atorvastatin dose increase groups",20.5-22.6%
same,reduced LDL-C levels by,"[2]; atorvastatin 20 mg regimen, add-on ezetimibe or doubling of atorvastatin dose",20.5%
same,reduced LDL-C levels by,"[2]; atorvastatin 40 mg regimen, add-on ezetimibe, doubling of atorvastatin dose or switch to rosuvastatin 40 mg",22.6%
same,General Allergic TEAEs (SMQ Hypersensitivity),[3],5 (5.0%) patients (%)
same,"SOC Injury, poisoning and procedural complications",[3],12 (11.9%) patients (%)
same,SOC Musculoskeletal and connective tissue disorders,[3],13 (12.9%) patients (%)
same,"SOC Neoplasms benign, malignant and unspecified (incl cysts and polyps)",[3],0 patients (%)
same,SOC Nervous system disorders,[3],6 (5.9%) patients (%)
same,TEAEs,[3],65 (64.4%) patients (%)
same,Treatment-emergent SAEs,[3],7 (6.9%) patients (%)
same,Treatment-emergent injection site reactions (ISRs),[3],3 (3.0%) patients (%)
same,Treatment-emergent neurologic disorders,[3],1 (1.0%) patients (%)
same,discontinued study treatment early due to a treatment emergent adverse event (TEAE),[3],4 (4.0%) patients (%)
same,patient deaths,[3],Two
same,Treatment-emergent cardiovascular events adjudicated positively,[3]; ischemia driven coronary revascularization procedure,1 (1.0%) patients (%)
same,Proportion of Patients Reaching LDL-C goal (%),[4]; Baseline Rosuvastatin 10 mg,57.2%
same,Proportion of Patients Reaching LDL-C goal (%),[4]; Baseline Rosuvastatin 20 mg,52.2%
same,proportion of patients who reached LDL-C level of <70 mg/dL (1.81 mmol/L) at Week 24,[4]; baseline rosuvastatin 10 mg regimen,43.1%
same,proportion of patients who reached LDL-C level of <70 mg/dL (1.81 mmol/L) at Week 24,[4]; baseline rosuvastatin 20 mg regimen,43.6%
mAb316P + RSV 10: treatment arm: mAb316P 75/150 mg Q2W + rosuvastatin 10 mg daily,Proportion of Patients Reaching LDL-C goal (%),[4]; Baseline Rosuvastatin 10 mg,84.9%
same,Calculated LDL-C LS mean (SE) Value,"[4]; Baseline, baseline rosuvastatin 10 mg",107.8 (3.8) mg/dL
same,"LDL-C W24 % change from baseline, LS mean (SE)",[4],−50.6%
same,Calculated LDL-C LS mean (SE) Value,[4]; [5],49.9 (3.6) mg/dL
same,"Calculated LDL-C LS mean (SE), % Change from Baseline",[4]; [5],−53.1 (3.2) %
same,"Calculated LDL-C LS mean (SE), Change from Baseline",[4]; [5],−55.3 (3.6)
same,Calculated LDL-C LS mean (SE) Value,[4]; [6],49.4 (4.3) mg/dL
same,"Calculated LDL-C LS mean (SE), % Change from Baseline",[4]; [6],−53.8 (3.8) %
same,"Calculated LDL-C LS mean (SE), Change from Baseline",[4]; [6],−55.9 (4.3)
same,Calculated LDL-C LS mean (SE) Value,[4]; [7],53.9 (4.1) mg/dL
same,"Calculated LDL-C LS mean (SE), % Change from Baseline",[4]; [7],−49.6 (4.1) %
same,"Calculated LDL-C LS mean (SE), Change from Baseline",[4]; [7],−51.3 (4.1)
same,Calculated LDL-C LS mean (SE) Value,[4]; [8],49.2 (4.7) mg/dL
same,"Calculated LDL-C LS mean (SE), % Change from Baseline",[4]; [8],−54.1 (4.7) %
same,"Calculated LDL-C LS mean (SE), Change from Baseline",[4]; [8],−56.1 (4.7)
same,Calculated LDL-C LS mean (SE) Value,[4]; [9],53.0 (4.3) mg/dL
same,"Calculated LDL-C LS mean (SE), % Change from Baseline",[4]; [9],−50.6 (4.2) %
same,"Calculated LDL-C LS mean (SE), Change from Baseline",[4]; [9],−52.2 (4.3)
mAb316P + RSV 20: treatment arm: mAb316P 75/150 mg Q2W + rosuvastatin 20 mg daily,Proportion of Patients Reaching LDL-C goal (%),[4]; Baseline Rosuvastatin 20 mg,66.7%
same,Calculated LDL-C LS mean (SE) Value,"[4]; Baseline, baseline rosuvastatin 20 mg",118.1 (4.5) mg/dL
same,"LDL-C W24 % change from baseline, LS mean (SE)",[4],−36.3%
same,Calculated LDL-C LS mean (SE) Value,[4]; [10],69.9 (3.4) mg/dL
same,"Calculated LDL-C LS mean (SE), % Change from Baseline",[4]; [10],−39.6 (5.2) %
same,"Calculated LDL-C LS mean (SE), Change from Baseline",[4]; [10],−47.1 (3.4)
same,Calculated LDL-C LS mean (SE) Value,[4]; [11],67.4 (4.3) mg/dL
same,"Calculated LDL-C LS mean (SE), % Change from Baseline",[4]; [11],−40.6 (5.7) %
same,"Calculated LDL-C LS mean (SE), Change from Baseline",[4]; [11],−49.6 (4.3)
same,Calculated LDL-C LS mean (SE) Value,[4]; [12],76.1 (4.2) mg/dL
same,"Calculated LDL-C LS mean (SE), % Change from Baseline",[4]; [12],−32.3 (5.2) %
same,"Calculated LDL-C LS mean (SE), Change from Baseline",[4]; [12],−41.0 (4.2)
same,Calculated LDL-C LS mean (SE) Value,[4]; [13],64.5 (4.8) mg/dL
same,"Calculated LDL-C LS mean (SE), % Change from Baseline",[4]; [13],−44.8 (6.2) %
same,"Calculated LDL-C LS mean (SE), Change from Baseline",[4]; [13],−52.6 (4.8)
same,Calculated LDL-C LS mean (SE) Value,[4]; [14],73.5 (5.8) mg/dL
same,"Calculated LDL-C LS mean (SE), % Change from Baseline",[4]; [14],−36.3 (7.1) %
same,"Calculated LDL-C LS mean (SE), Change from Baseline",[4]; [14],−43.5 (5.8)
